compound: C1=CC2=C(C=C(C(=C2N=C1)O)N=NC3=CC4=C(C=C3)C=C(C=C4)S(=O)(=O)O)S(=O)(=O)O; assay: relative viability (nuclei count vs DMSO), 5 days (fraction); higher = more cells survive; conditions: 8 µM
Outline: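 Acceptance criteria were a control CV below 25% and at least one doubling per plate. Lung cancer cell lines in 1536-well plates got five library-drug doses (not always all listed) √10 apart by pinning and were left 5 days with no medium change. Viability divides treated-well nuclei by vehicle-well nuclei and is the median across plates. Nuclei were counted by MetaXpress from 4× Hoechst images.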

Cell Line | relative viability
NCI-H650 | 0.671
PC-3 [JPC-3] | 0.997

compound: O=C(NC1CCNCC1)c1n[nH]cc1NC(=O)c1c(Cl)cccc1Cl [AT-7519] + CS(=O)(=O)CCNCc1ccc(-c2ccc3ncnc(Nc4ccc(OCc5cccc(F)c5)c(Cl)c4)c3c2)o1 [Lapatinib] (partner 2 µM); assay: relative viability (nuclei count vs DMSO), 5 days (fraction); higher = more cells survive; conditions: first compound 0.01 µM
Outline: (§1)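 Five library-drug doses in √10 steps were combined with a fixed anchor-drug dose, or a single drug was given alone, by pin tool to lung cancer cell lines in 1536-well plates the day after seeding. Nuclei were stained and counted after 5 days. Relative viability is the nuclei count in treated wells over that in vehicle wells, taken as the median of duplicate plates.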

Cell Line | relative viability
NCI-H23 | 0.955
NCI-H1299 | 0.994
NCI-H647 | 1.02
NCI-H1651 | 0.862
EPLC-272H | 0.979
NCI-H2228 | 1.02
NCI-H1792 | 0.673
NCI-H1355 | 0.959
NCI-H3122 | 1.02
NCI-H1437 | 0.77
NCI-H1755 | 1.02
NCI-H2023 | 0.911
HCC-15 | 0.891
NCI-H1793 | 0.554
PC-14 | 0.269
EKVX | 0.203
LC-2-ad | 1.03
NCI-H1563 | 0.923
NCI-H1944 | 0.807
NCI-H1975 | 0.861
RERF-LC-KJ | 0.847
ABC-1 | 0.984
NCI-H358 | 0.406
NCI-H650 | 0.923
PC-3 [JPC-3] | 0.529

same assay, conditions: first compound 0.03162 µM

Cell Line | relative viability
NCI-H23 | 0.975
NCI-H1299 | 0.977
NCI-H647 | 1
CAL-12T | 0.538
NCI-H1651 | 0.784
EPLC-272H | 0.913
NCI-H2228 | 1.11
NCI-H1792 | 0.845
NCI-H1355 | 0.911
NCI-H3122 | 0.986
NCI-H1437 | 0.71
NCI-H1755 | 1.03
NCI-H2023 | 0.755
HCC-15 | 0.828
NCI-H1793 | 0.713
PC-14 | 0.302
EKVX | 0.198
LC-2-ad | 1.05
NCI-H1563 | 0.971
NCI-H1944 | 0.775
NCI-H1975 | 0.817
RERF-LC-KJ | 0.922
ABC-1 | 0.909
NCI-H358 | 0.447
NCI-H650 | 0.841
PC-3 [JPC-3] | 0.441

same assay, conditions: first compound 0.3162 µM

Cell Line | relative viability
NCI-H23 | 0.919
NCI-H1299 | 0.975
NCI-H647 | 0.937
CAL-12T | 0.386
NCI-H1651 | 0.607
EPLC-272H | 0.652
NCI-H2228 | 0.669
NCI-H1792 | 0.98
NCI-H1355 | 1.12
NCI-H3122 | 1.08
NCI-H1437 | 0.514
NCI-H1755 | 0.948
NCI-H2023 | 0.504
HCC-15 | 0.692
NCI-H1793 | 0.421
PC-14 | 0.313
EKVX | 0.186
LC-2-ad | 0.922
NCI-H1563 | 1.07
NCI-H1944 | 0.84
NCI-H1975 | 0.447
RERF-LC-KJ | 0.86
ABC-1 | 0.986
NCI-H358 | 0.335
NCI-H650 | 0.781
PC-3 [JPC-3] | 0.416

same assay, conditions: first compound 1 µM

Cell Line | relative viability
NCI-H23 | 0.218
NCI-H1299 | 0.58
NCI-H647 | 0.291
CAL-12T | 0.186
NCI-H1651 | 0.534
EPLC-272H | 1.07
NCI-H2228 | 0.481
NCI-H1792 | 0.94
NCI-H1355 | 0.989
NCI-H3122 | 0.701
NCI-H1437 | 0.22
NCI-H1755 | 1.11
NCI-H2023 | 0.177
HCC-15 | 0.5
NCI-H1793 | 0.226
PC-14 | 0.296
EKVX | 0.172
LC-2-ad | 0.744
NCI-H1563 | 1.01
NCI-H1944 | 0.864
NCI-H1975 | 0.158
RERF-LC-KJ | 0.851
ABC-1 | 0.966
NCI-H358 | 0.198
NCI-H650 | 0.75
PC-3 [JPC-3] | 0.52

compound: C1=CC2=C(C=C(C(=C2N=C1)O)N=NC3=CC4=C(C=C3)C=C(C=C4)S(=O)(=O)O)S(=O)(=O)O + CS(=O)(=O)N1CCN(Cc2cc3nc(-c4cccc5[nH]ncc45)nc(N4CCOCC4)c3s2)CC1 [Pictilisib] (partner 1 µM); assay: as above; conditions: first compound 0.08 µM
Outline: as §1

Cell Line | relative viability
NCI-H23 | 0.516
NCI-H1299 | 0.755
NCI-H647 | 0.357
CAL-12T | 0.351
NCI-H1651 | 0.777
EPLC-272H | 0.354
NCI-H2228 | 0.435
NCI-H1792 | 0.304
NCI-H1355 | 0.423
NCI-H3122 | 0.629
NCI-H1437 | 0.489

Reference: the supplement of paper PMC10307832
